Data reported in PubChem BioAssay (NCI).
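Briefly, cells in 96-well plates were exposed to five compound concentrations for 48 h, and endpoints were estimated by linear interpolation. GI50 marks 50% less growth. At the TGI there is no net growth.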

Key:
Experiment in all cases: growth of human tumour cells (NCI), 48 h
[1] = system: SF-539 CNS
[2] = system: NCI-H23 lung
[3] = system: A549 NSCLC
[4] = system: IGROV1 ovarian
[5] = system: LOX IMVI melanoma
[6] = system: HCT-15 colon
[7] = system: EKVX NSCLC
[8] = system: HCT-116 colon
[9] = system: OVCAR-3 ovarian
[10] = system: KM12 colon
[11] = system: SNB-19 CNS
[12] = system: NCI-H460 lung
[13] = system: OVCAR-8 ovarian
[14] = system: RPMI-8226 leukemia
[15] = system: SR leukemia
[16] = system: UACC-62 melanoma
[17] = system: BT-549 breast
[18] = system: SNB-75 CNS
[19] = system: HOP-92 NSCLC
[20] = system: HS 578T breast
[21] = system: NCI-H522 lung
[22] = system: U251 CNS
[23] = system: SK-OV-3 ovarian
[24] = system: COLO 205 colon
[25] = system: ACHN renal
[26] = system: HL-60(TB) leukemia
[27] = system: UO-31 renal
[28] = system: SK-MEL-5 melanoma
[29] = system: RXF 393 renal
[30] = system: TK-10 renal
[31] = system: SF-295 CNS
[32] = system: SN12C renal
[33] = system: 786-0 renal
[34] = system: MDA-MB-435
[35] = system: PC-3 prostate
[36] = system: SK-MEL-28 melanoma
[37] = system: UACC-257 melanoma
[38] = system: M14 melanoma
[39] = system: HOP-62 NSCLC
[40] = system: MCF7 breast
[41] = system: T-47D breast
[42] = system: NCI/ADR-RES ovarian
[43] = system: SF-268 CNS
[44] = system: CAKI-1 renal
[45] = system: SK-MEL-2 melanoma
[46] = system: OVCAR-5 ovarian
[47] = system: DU-145 prostate
[48] = system: K-562 leukemia
[49] = system: SW-620 colon
[50] = system: MDA-MB-231 breast
[51] = system: A498 renal
[52] = system: OVCAR-4 ovarian
[53] = system: CCRF-CEM leukemia
[54] = system: NCI-H226 lung
[55] = system: HCC-2998 colon
[56] = system: MALME-3M melanoma
[57] = system: MOLT-4 leukemia
[58] = system: HT29 colon

`CSc1cc(N=Nc2nc3ccccc3s2)c2ccccc2c1O` showed a GI50 [1] of 0.0413 µM, a TGI [1] of 3.87 µM and a GI50 [2] of 10.5 µM. For the same compound, the TGI [2] was 27.9 µM, the GI50 [3] was 12.1 µM and the TGI [3] was 28.1 µM. It also gave a GI50 [4] of 7.64 µM, a TGI [4] of 24.3 µM and a GI50 [5] of 5.97 µM. The TGI [5] was 12.7 µM, the GI50 [6] was 8.31 µM and the TGI [6] was 20.2 µM. It also gave a GI50 [7] of 7.2 µM, a TGI [7] of 16.4 µM and a GI50 [8] of 7.3 µM. For the same compound, the TGI [8] was 29.3 µM, the GI50 [9] was 7.89 µM and the TGI [9] was 19.3 µM. For the same compound, the GI50 [10] was 5.35 µM, the TGI [10] was 28.7 µM and the GI50 [11] was 9.59 µM. It also gave a TGI [11] of 25.7 µM, a GI50 [12] of 7.83 µM and a TGI [12] of 17.6 µM. The GI50 [13] was 13.6 µM, the TGI [13] was 39 µM and the GI50 [14] was 2.51 µM. The TGI [14] was 25.6 µM, the GI50 [15] was 0.973 µM and the TGI [15] was 19.4 µM. The GI50 [16] was 5.41 µM, the TGI [16] was 11.9 µM and the GI50 [17] was 6.28 µM. For the same compound, the TGI [17] was 14 µM, the GI50 [18] was 0.0869 µM and the TGI [18] was 11.9 µM. The GI50 [19] was 10.1 µM, the TGI [19] was greater than 50 µM and the GI50 [20] was 20.9 µM. For the same compound, the TGI [20] was greater than 50 µM, the GI50 [21] was 1.82 µM and the TGI [21] was 13.1 µM. For the same compound, the GI50 [22] was 9.03 µM, the TGI [22] was 19.4 µM and the GI50 [23] was 10.7 µM. It also gave a TGI [23] of 28.7 µM, a GI50 [24] of 14.2 µM and a TGI [24] greater than 50 µM. For the same compound, the GI50 [25] was 6.57 µM, the TGI [25] was 13.1 µM and the GI50 [26] was 0.906 µM. It also gave a TGI [26] of 25.5 µM, a GI50 [27] of 7.61 µM and a TGI [27] of 15.9 µM. It also gave a GI50 [28] of 6.43 µM, a TGI [28] of 13.3 µM and a GI50 [29] of 5.99 µM. It also gave a TGI [29] of 14.3 µM, a GI50 [30] of 12.6 µM and a TGI [30] of 28.7 µM. For the same compound, the GI50 [31] was 11.5 µM, the TGI [31] was 27.6 µM and the GI50 [32] was 6.1 µM. The TGI [32] was 12.9 µM, the GI50 [33] was 9.82 µM and the TGI [33] was 18.4 µM. The GI50 [34] was 11.1 µM, the TGI [34] was 23.9 µM and the GI50 [35] was 13.4 µM. The TGI [35] was greater than 50 µM, the GI50 [36] was 8.01 µM and the TGI [36] was 18.6 µM. The GI50 [37] was 11.6 µM, the TGI [37] was 21.7 µM and the GI50 [38] was 9.55 µM. The TGI [38] was 21.6 µM, the GI50 [39] was 10.2 µM and the TGI [39] was 20 µM. It also gave a GI50 [40] of 9.51 µM, a TGI [40] of 28.8 µM and a GI50 [41] of 3.64 µM. For the same compound, the TGI [41] was greater than 50 µM, the GI50 [42] was 7.17 µM and the TGI [42] was 20.7 µM. It also gave a GI50 [43] of 7.87 µM, a TGI [43] of 17.4 µM and a GI50 [44] of 10.1 µM. The TGI [44] was 20.3 µM, the GI50 [45] was 8.41 µM and the TGI [45] was 22 µM. For the same compound, the GI50 [46] was 16.1 µM, the TGI [46] was 28.7 µM and the GI50 [47] was 9.16 µM. It also gave a TGI [47] of 16.9 µM, a GI50 [48] of 3.6 µM and a TGI [48] of 15.2 µM. For the same compound, the GI50 [49] was 13.3 µM, the TGI [49] was 34.8 µM and the GI50 [50] was 6.97 µM. The TGI [50] was 14.6 µM, the GI50 [51] was 23.3 µM and the TGI [51] was 45.5 µM.
In the case of `NCC(=O)NS(=O)(=O)OC[C@H]1O[C@@H](n2cnc3c(N)ncnc32)[C@H](O)[C@@H]1O`, the GI50 [1] is reported as 1.43 µM, the TGI [1] is reported as 3.58 µM and the GI50 [2] is reported as 2.56 µM. For the same compound, the TGI [2] was 7.04 µM, the GI50 [3] was 2.32 µM and the TGI [3] was 5.27 µM. The GI50 [4] was 3.04 µM, the TGI [4] was 7.68 µM and the GI50 [52] was 0.388 µM. It also gave a TGI [52] of 2.45 µM, a GI50 [5] of 1.68 µM and a TGI [5] of 3.52 µM. It also gave a GI50 [6] of 2.92 µM, a TGI [6] of 10.1 µM and a GI50 [7] of 2.58 µM. It also gave a TGI [7] of 8.88 µM, a GI50 [53] of 3.71 µM and a TGI [53] greater than 100 µM. The GI50 [8] was 3.14 µM, the TGI [8] was 9.19 µM and the GI50 [9] was 2.01 µM. It also gave a TGI [9] of 4.48 µM, a GI50 [10] of 3.22 µM and a TGI [10] of 14.4 µM. For the same compound, the GI50 [11] was 0.378 µM, the TGI [11] was 1.48 µM and the GI50 [12] was 3.23 µM. It also gave a TGI [12] of 10.1 µM, a GI50 [13] of 2.48 µM and a TGI [13] of 7.59 µM. The GI50 [14] was 3.29 µM, the TGI [14] was 10.1 µM and the GI50 [15] was 0.936 µM. The TGI [15] was greater than 100 µM, the GI50 [54] was 2 µM and the TGI [54] was 3.77 µM. The GI50 [16] was 1.85 µM, the TGI [16] was 3.78 µM and the GI50 [55] was 2.04 µM. For the same compound, the TGI [55] was 4.34 µM, the GI50 [17] was 2.34 µM and the TGI [17] was 5.56 µM. The GI50 [18] was 1.14 µM, the TGI [18] was 3.32 µM and the GI50 [19] was 2.97 µM. For the same compound, the TGI [19] was 6.78 µM, the GI50 [20] was 2.89 µM and the TGI [20] was 9.13 µM. The GI50 [21] was 1.75 µM, the TGI [21] was 3.85 µM and the GI50 [22] was 0.555 µM. For the same compound, the TGI [22] was 1.98 µM, the GI50 [23] was 2.87 µM and the TGI [23] was 7.94 µM. It also gave a GI50 [24] of 2.27 µM, a TGI [24] of 6.14 µM and a GI50 [25] of 2.89 µM. For the same compound, the TGI [25] was 8.37 µM, the GI50 [26] was 2.78 µM and the TGI [26] was 6.95 µM. For the same compound, the GI50 [27] was 1.71 µM, the TGI [27] was 3.25 µM and the GI50 [28] was 1.85 µM. For the same compound, the TGI [28] was 3.34 µM, the GI50 [29] was 2.11 µM and the TGI [29] was 4.2 µM. For the same compound, the GI50 [30] was 2.75 µM, the TGI [30] was 5.78 µM and the GI50 [31] was 0.861 µM. The TGI [31] was 2.56 µM, the GI50 [32] was 0.563 µM and the TGI [32] was 4.6 µM. It also gave a GI50 [33] of 1.77 µM, a TGI [33] of 3.47 µM and a GI50 [56] of 1.92 µM. The TGI [56] was 3.87 µM, the GI50 [34] was 1.84 µM and the TGI [34] was 3.49 µM. The GI50 [35] was 2.66 µM, the TGI [35] was 6.47 µM and the GI50 [36] was 1.93 µM. For the same compound, the TGI [36] was 4.14 µM, the GI50 [57] was 2.62 µM and the TGI [57] was 8.86 µM. It also gave a GI50 [38] of 1.81 µM, a TGI [38] of 3.61 µM and a GI50 [39] of 0.368 µM. The TGI [39] was 1.68 µM, the GI50 [40] was 2.85 µM and the TGI [40] was 18.7 µM. The GI50 [41] was 2.32 µM, the TGI [41] was 9.21 µM and the GI50 [42] was 2.53 µM. The TGI [42] was 9.67 µM, the GI50 [43] was 0.503 µM and the TGI [43] was 5.65 µM. The GI50 [45] was 2.22 µM, the TGI [45] was 4.69 µM and the GI50 [46] was 0.75 µM. The TGI [46] was 4.1 µM, the GI50 [58] was 2.92 µM and the TGI [58] was 7.46 µM. For the same compound, the GI50 [47] was 0.699 µM, the TGI [47] was 5.61 µM and the GI50 [48] was 3.71 µM. It also gave a TGI [48] of 11.8 µM, a GI50 [49] of 3.71 µM and a TGI [49] of 24.6 µM. The GI50 [50] was 0.526 µM, the TGI [50] was 2.62 µM and the GI50 [51] was 1.6 µM. For the same compound, the TGI [51] was 3.21 µM.
